{"source": "paper PMC9299836", "about": "(eLife, 2022)", "key": {"[1]": {"target": "T1, mGluR2 (Mus musculus, UniProt Q14BI2, A548F)", "T1 sequence (Q14BI2 19-872 A548F)": "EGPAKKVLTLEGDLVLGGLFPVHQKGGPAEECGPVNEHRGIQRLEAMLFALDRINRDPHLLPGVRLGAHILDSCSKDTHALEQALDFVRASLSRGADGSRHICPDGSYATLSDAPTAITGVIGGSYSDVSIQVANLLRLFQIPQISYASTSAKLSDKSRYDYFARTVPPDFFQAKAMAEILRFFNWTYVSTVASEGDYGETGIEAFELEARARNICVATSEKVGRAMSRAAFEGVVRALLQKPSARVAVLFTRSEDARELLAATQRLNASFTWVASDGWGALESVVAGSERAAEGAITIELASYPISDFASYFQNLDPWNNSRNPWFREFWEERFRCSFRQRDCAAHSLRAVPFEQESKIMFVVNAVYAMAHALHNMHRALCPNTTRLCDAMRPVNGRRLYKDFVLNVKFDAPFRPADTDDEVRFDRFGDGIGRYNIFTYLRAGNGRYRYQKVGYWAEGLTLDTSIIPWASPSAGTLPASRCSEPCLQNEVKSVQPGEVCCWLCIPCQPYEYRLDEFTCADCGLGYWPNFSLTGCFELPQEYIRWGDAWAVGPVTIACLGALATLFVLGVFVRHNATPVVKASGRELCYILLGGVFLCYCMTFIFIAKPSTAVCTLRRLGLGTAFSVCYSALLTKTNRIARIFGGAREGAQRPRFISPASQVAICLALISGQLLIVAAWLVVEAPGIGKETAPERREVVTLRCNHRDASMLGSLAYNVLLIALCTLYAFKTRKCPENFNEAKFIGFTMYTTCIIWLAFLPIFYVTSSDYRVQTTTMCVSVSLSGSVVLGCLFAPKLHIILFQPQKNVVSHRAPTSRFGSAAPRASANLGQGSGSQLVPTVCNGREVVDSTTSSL", "test": "Single-molecule FRET (SiMPull) of azi-CRD: population histograms and state occupancy;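 note: Cy3/Cy5-labelled receptor from HEK293T cell lysate captured on anti-FLAG surfaces, apparent FRET efficiency computed from donor and acceptor intensities with crosstalk correction, pooled into population histograms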", "conditions": "azi-CRD, 10 μM modulator, fraction of total area"}, "[2]": {"target": "mGluR2 (Mus musculus, UniProt Q14BI2)", "sequence (Q14BI2 19-872)": "as the sequence (Q14BI2 19-872 A548F) above, with F530A counted along it", "test": "Functional calcium imaging, SNAP-mGluR2 (no FLAG-tag) with chimeric G protein Gqo5 in HEK293T cells", "assay_type": "cell-based", "design": "Full length mGluR2 construct with an amber codon (TAG) mutation of amino acid A548 (azi-CRD) or N-terminal SNAP-tag (SNAP-mGluR2); host or cells: HEK293T", "conditions": "for Intracellular Ca2+ Response (normalized to 1mM glutamate), Mean: Glutamate + 1μM BINA"}, "[3]": {"target": "T1, mGluR2", "test": "Live-cell FRET, azi-CRD (cysteine-rich domain) sensor in HEK293T cells", "conditions": "for Mean normalized FRET response, azi-CRD PAM DRC: glutamate + 10μM BINA, maximal response normalized to 1mM glutamate"}}, "note": "“And” between values parts separate entries of the source, which are not always exact repeats. Equal values may be shown once.", "data": [{"smiles": "Cc1c(OCc2cccc(-c3ccc(C(=O)O)cc3)c2)cc2c(c1C)C(=O)C(C1CCCC1)C2", "note": "(stereo not shown) [BINA]", "values": [{"measurement": "Mean occupancy, state 1 (inactive, FRET 0.24)", "setting": "[1]; 0 μM glutamate", "value": 0.3053}, {"measurement": "Mean occupancy, state 2 (intermediate 1, FRET 0.38)", "setting": "[1]; 0 μM glutamate", "value": 0.5199}, {"measurement": "Mean occupancy, state 3 (intermediate 2, FRET 0.70)", "setting": "[1]; 0 μM glutamate", "value": 0.1483}, {"measurement": "Mean occupancy, state 4 (active, FRET 0.87)", "setting": "[1]; 0 μM glutamate", "value": 0.02653}, {"measurement": "Mean occupancy, state 1 (inactive, FRET 0.24)", "setting": "[1]; 1000 μM glutamate", "value": 0.00296}, {"measurement": "Mean occupancy, state 2 (intermediate 1, FRET 0.38)", "setting": "[1]; 1000 μM glutamate", "value": 0.03751}, {"measurement": "Mean occupancy, state 3 (intermediate 2, FRET 0.70)", "setting": "[1]; 1000 μM glutamate", "value": 0.2179}, {"measurement": "Mean occupancy, state 4 (active, FRET 0.87)", "setting": "[1]; 1000 μM glutamate", "value": 0.7416}, {"measurement": "Intracellular Ca2+ Response, % 1mM Glutamate", "setting": "[2]; 1mM Glutamate + 1uM BINA, individual experiments", "value": "150.888% and 116.9% and 139.124%"}, {"measurement": "Mean ΔEfficacy of glutamate", "setting": "[2]; Ca2+ response, 1 mM glutamate + 1 μM modulator, ([1 mM glutamate + modulator] - [1 mM glutamate]) × 100", "value": 35.6375}, {"measurement": "ΔEfficacy of glutamate, individual experiments", "setting": "[2]; Ca2+ response, 1 mM glutamate + 1 μM modulator, single replicate", "value": "16.9004 and 39.1239 and 50.8883"}, {"measurement": "Mean ΔPotency of glutamate", "setting": "[2]; Ca2+ response, glutamate + 1 μM modulator, (([modulator + glutamate]EC50 – [glutamate]EC50)/[glutamate]EC50) × 100", "value": -89.8956}, {"measurement": "ΔPotency of glutamate, individual experiments", "setting": "[2]; Ca2+ response, glutamate + 1 μM modulator, single replicate", "value": "-90.1258 and -89.6956 and -89.8653"}, {"measurement": "Intracellular Ca2+ Response (normalized to 1mM glutamate), Mean", "setting": "[2]; log[Glutamate] (M) -3", "value": 1.356}, {"measurement": "Intracellular Ca2+ Response (normalized to 1mM glutamate), Mean", "setting": "[2]; log[Glutamate] (M) -3.60206", "value": 1.413}, {"measurement": "Intracellular Ca2+ Response (normalized to 1mM glutamate), Mean", "setting": "[2]; log[Glutamate] (M) -4.1549", "value": 1.344}, {"measurement": "Intracellular Ca2+ Response (normalized to 1mM glutamate), Mean", "setting": "[2]; log[Glutamate] (M) -4.52288", "value": 1.309}, {"measurement": "Intracellular Ca2+ Response (normalized to 1mM glutamate), Mean", "setting": "[2]; log[Glutamate] (M) -5", "value": 1.259}, {"measurement": "Intracellular Ca2+ Response (normalized to 1mM glutamate), Mean", "setting": "[2]; log[Glutamate] (M) -5.39794", "value": 1.0353}, {"measurement": "Intracellular Ca2+ Response (normalized to 1mM glutamate), Mean", "setting": "[2]; log[Glutamate] (M) -5.82391", "value": 0.6392}, {"measurement": "Intracellular Ca2+ Response (normalized to 1mM glutamate), Mean", "setting": "[2]; log[Glutamate] (M) -6.52288", "value": 0.1098}, {"measurement": "Intracellular Ca2+ Response (normalized to 1mM glutamate), Mean", "setting": "[2]; log[Glutamate] (M) -7", "value": 0}, {"measurement": "Intracellular Ca2+ Response (normalized to 1mM glutamate), Mean", "setting": "[2]; log[Glutamate] (M) -7.30103", "value": 0}, {"measurement": "Intracellular Ca2+ Response (normalized to 1mM glutamate), Mean", "setting": "[2]; log[Glutamate] (M) -7.69897", "value": 0}, {"measurement": "azi-CRD - ΔEfficacy, Mean ΔEfficacy", "setting": "[3]; 10μM BINA, ([1 mM glutamate + modulator] - [1 mM glutamate]) × 100", "value": 12.0943}, {"measurement": "azi-CRD - ΔEfficacy, individual cell responses", "setting": "[3]; 10μM BINA, single cells", "value": "23.3716 and 17.6357 and 26.8405 and 19.7115 and 27.7937 and 0.5839 and -1.206 and 0.442 and -6.324"}, {"measurement": "Hill slope of glutamate titration", "setting": "[3]; azi-CRD sensor, + 10 μM modulator", "value": 1.16}, {"measurement": "Live-cell FRET max response normalized to 1mM glutamate", "setting": "[3]; azi-CRD sensor, Glutamate + 10μM BINA, individual values (N=9)", "value": "1.278 and 1.006 and 0.9879 and 1.004 and 0.9368 and 1.234 and 1.176 and 1.2684 and 1.197"}, {"measurement": "Mean max response (normalized max ΔFRET)", "setting": "[3]; azi-CRD, 1 mM glutamate + 10 μM modulator, normalized to 1 mM glutamate", "value": 1.12}, {"measurement": "Mean ΔPotency", "setting": "[3]; azi-CRD, 10μM modulator, (([modulator + glutamate]EC50 – [glutamate] EC50)/[glutamate] EC50) × 100", "value": -86.2846}, {"measurement": "ΔPotency, individual cell", "setting": "[3]; azi-CRD, 10μM modulator, calculated from individual cell responses", "value": "-93.2892 and -92.5628 and -93.8686 and -95.6587 and -92.9779 and -84.725 and -80.1033 and -74.2586 and -75.6122 and -79.7897"}, {"measurement": "Mean normalized FRET response, azi-CRD PAM DRC", "setting": "[3]; log[Glutamate] (M) -3", "value": 1.121}, {"measurement": "Mean normalized FRET response, azi-CRD PAM DRC", "setting": "[3]; log[Glutamate] (M) -4.1549", "value": 1.112}, {"measurement": "Mean normalized FRET response, azi-CRD PAM DRC", "setting": "[3]; log[Glutamate] (M) -4.52288", "value": 1.067}, {"measurement": "Mean normalized FRET response, azi-CRD PAM DRC", "setting": "[3]; log[Glutamate] (M) -5", "value": 1.001}, {"measurement": "Mean normalized FRET response, azi-CRD PAM DRC", "setting": "[3]; log[Glutamate] (M) -5.39794", "value": 0.8946}, {"measurement": "Mean normalized FRET response, azi-CRD PAM DRC", "setting": "[3]; log[Glutamate] (M) -5.82391", "value": 0.6333}, {"measurement": "Mean normalized FRET response, azi-CRD PAM DRC", "setting": "[3]; log[Glutamate] (M) -6.52288", "value": 0.1759}, {"measurement": "Mean normalized FRET response, azi-CRD PAM DRC", "setting": "[3]; log[Glutamate] (M) -7", "value": 0.038}, {"measurement": "Mean normalized FRET response, azi-CRD PAM DRC", "setting": "[3]; log[Glutamate] (M) -7.30103", "value": 0}]}]}
